Experimental findings from PMC3833349 (ACS Chemical Biology, 2013) are described below.

“Also recorded” adds a separate entry of the source.

In general, Km refers to the substrate concentration at which the rate is half of its maximum.

Experiment [1] concerns the target T1, FabG (Pseudomonas aeruginosa, UniProt O54438).
T1 sequence (O54438 1-247): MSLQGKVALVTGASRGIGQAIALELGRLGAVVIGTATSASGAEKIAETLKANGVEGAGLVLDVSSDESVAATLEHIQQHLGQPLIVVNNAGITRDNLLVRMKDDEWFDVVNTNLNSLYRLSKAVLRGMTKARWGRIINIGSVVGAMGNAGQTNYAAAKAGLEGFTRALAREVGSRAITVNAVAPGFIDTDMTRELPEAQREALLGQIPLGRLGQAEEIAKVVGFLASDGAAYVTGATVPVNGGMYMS
Put plainly: Back Assay: FabG-catalyzed oxidation of 3-OH decanoyl-NAC, NADPH fluorescence. Format: biochemical.

Experiment [2] deals with T1, FabG. Put plainly: Forward Assay: FabG-catalyzed reduction of AcAcCoA, NADPH consumption at 340 nm.
Experiment [3] has as its system Staphylococcus aureus RN4220. Put plainly: Phenotypic growth assay S. aureus. The experiment is classed as cell-based.
The mark [4] stands for this setting: Lineweaver–Burk plot, 0-200 nM FG01.

As to “3-hydroxydecanoyl-N-acetylcysteamine [3-OH decanoyl-NAC]”, the Michaelis constant (Km) on FabG [1] (3-OH decanoyl-NAC, not determinable, response linear at least to 0.3 mM) was above 300 µM. For `c1ccc(-c2nc(-n3cnnc3)c3ccccc3n2)cc1` [FG01, 2-phenyl-4-(1,2,4-triazol-4-yl)quinazoline], at FabG [2] (setting [4]), the “mode of inhibition with respect to AcAcCoA” value is listed as “mixed inhibition pattern” and the “mode of inhibition with respect to NADPH” value is given as “noncompetitive mode of inhibition; also recorded: noncompetitive inhibition pattern”. As to `Cn1ncc2c(NCCO)nc(Nc3ccc(F)c(F)c3)nc21` [FG39, 2-[[6-(3,4-difluoroanilino)-1-methylpyrazolo[3,4-d]pyrimidin-4-yl]amino]ethanol], the “inhibition of cell growth” value in experiment [3] (S. aureus, 100 μM) amounted to 35%. Take `COc1ccccc1Nc1cccc2nccnc12` [FG48, N-(2-methoxyphenyl)quinoxalin-5-amine]: the “effect on growth of S. aureus” value in experiment [3] (concentration/effect curve) is “completely inhibited the growth”. As to `NC(=O)C1=CN([C@@H]2O[C@H](COP(=O)(O)OP(=O)(O)OC[C@H]3O[C@@H](n4cnc5c(N)ncnc54)[C@H](OP(=O)(O)O)[C@@H]3O)[C@@H](O)[C@H]2O)C=CC1` [NADPH, reference compound], the Km on FabG [2] (NADPH, in the presence of 4 mM AcAcCoA) stood at 290 ± 30 µM. As for `NC(=O)c1ccc[n+]([C@@H]2O[C@H](COP(=O)([O-])OP(=O)(O)OC[C@H]3O[C@@H](n4cnc5c(N)ncnc54)[C@H](OP(=O)(O)O)[C@@H]3O)[C@@H](O)[C@H]2O)c1` [NADP^+], the Km at FabG [1] (NADP+, in the presence of 0.3 mM 3-OH decanoyl-NAC) was found to be 290 µM.
